Assay results published in US4443619A, “Chlorocitric acids” (Hoffmann-La Roche Inc., priority 1981, dated 1984).

Experiments:
[1] = system: fatty acid and cholesterol syntheses; experiment: Inhibition of fatty acid, lipid and cholesterol synthesis (summary statements)
[2] = Body weight and food intake in meal-fed rats, 16 day study (Example 19); format: in vivo, Charles River female rats; settings: 16 days
Experimental: Two month old Charles River female rats (Charles River Breeding Laboratories, Wilmington, Mass.) were individually housed in wire-bottomedcages in a temperature-regulated (22° C.) light-controlled room (12 hr light, 6 a.m. to 6 p.m. and 12 hr dark, 6 p.m. to 6 a.m.). […] (1) control, (2) (-)-threo-chlorocitric acid (1.0 mmoles/kg, 227 mg/kg) administered by oral intubation 30 min before the 3 hr meal, and (3) (-)-threo-chlorocitric acid (1.1 mmoles/kg, 250 mg/kg) as a dietary admixture for the 3 hr meal. Treatment was continued for 16 days. The amount of body weight gained and food consumed during the study were determined.

[3] = Anorectic activity, body weight and carcass analysis in mammals (summary statements); format: in vivo
[4] = Effect of stereoisomers of chlorocitric acid on food consumption in meal-fed rats (Example 14); format: in vivo, Charles River female rats; settings: mean ± S.E.
Experimental: Animals were fasted 48 hr, then meal-fed the 70% glucose diet described by A. C. […] Following 5 to 12 days alimentation on the meal-feeding regimen, rats were dosed with the appropriate compounds orally by intubation 1/2 hr before the 3 hr meal. Food cups were weighed immediately after the meal. The control group consisted of 5 to 10 rats, while the experimental group consisted of 4 to 6 rats.

[5] = system: Cholesterol Synthesis; experiment: Cholesterol synthesis in isolated rat hepatocytes (Example 23); format: cell-based, rat (female Charles River); settings: 2 mM, 60 min, 37° C., 2000 µM
Experimental: Female Charles River rats were fasted 48 hr, then meal-fed a 1% corn oil, 70% glucose diet for 7 to 14 days from 8 to 11 a.m. The isolated rat hepatocytes were prepared by perfusing the liver in situ. The hepatocytes were incubated in an oscillating water bath at 37° C. for 60 min. […] All incubations were done in triplicate and all experiments were repeated at least twice. […] The contents of the center well were transferred to scintillation counting fluid and ^14 CO2 content was determined. […] The media was then acidified, extracted with hexane, and the extract counted (to determine the rate of lipogenesis). The conversion of ^3 H2 O and [^14 C]alanine into fatty acids or sterols was determined in a PDS/3, Mark II liquid scintillation counting system.

[6] = Body weight and food intake in meal-fed rats, oral administration, 17 day study (Example 21); format: in vivo, Charles River female rats; settings: 17 days
Experimental: (§1) Two month old Charles River female rats (Charles River Breeding Laboratories, Wilmington, Mass.) were individually housed in wire-bottomedcages in a temperature-regulated (22° C.) light-controlled room (12 hr light, 6 a.m. to 6 p.m. and 12 hr dark, 6 p.m. to 6 a.m.). […] On the 8th day, the animals were administered water or (-)-threo-chlorocitric acid at the indicated concentration by oral intubation 30 min before the 3 hr meal. Treatment was continued for 17 days. Food cups were weighed immediately after the meal. The amount of body weight gained and food consumed during the period was determined.

[7] = Food consumption of three diets in meal-fed rats (Example 15); format: in vivo, Charles River female rats; settings: mean ± S.E.
Experimental: Charles River female rats (Charles River Breeding Laboratories, Wilmington, Mass.), weighing 170 to 200 g, were individually housed in wire-bottomed cages in a temperature-regulated (22° C.) light-controlled room (12 hr light, 6 a.m. to 6 p.m. and 12 hr dark, 6 p.m. to 6 a.m.). Animals were fasted 48 hr, then meal-fed the indicated diets from 8 to 11 a.m. Following 5 to 12 days alimentation on the meal-feeding regimen, rats were dosed with the appropriate compounds orally by intubation 1/2 hr before the 3 hr meal. Food cups were weighed immediately after the 1st, 2nd and 3rd hr of the meal. The control groups consisted of 8 to 10 rats and the experimental group considered of 5 to 6 rats.

[8] = Total body fat in meal-fed rats, oral administration, 17 day study (Example 22); format: in vivo, Charles River female rats; settings: 17 days
Experimental: as §1, with “After 17 days” for “The amount”, “treatment, rats were killed by decapitation” for “body weight gained”, “blood” for “food consumed during the period”, “removed. […] C. Sullivan, et al, Am. J. Clinical Nutrition, 30 767 (1977). […] Total carcass and lipid data are expressed in grams and percentages of carcass weight.” for “determined.”

[9] = dietary admixture, 1.1 mmoles (250 mg)/kg/day
[10] = oral intubation, 1.0 mmoles (227 mg)/kg/day
[11] = G-70, 0.25 mmoles (57 mg)/kg oral
[12] = G-70, 0.50 mmoles (114 mg)/kg oral
[13] = G-70, 1.00 mmoles (227 mg)/kg oral
[14] = 20% Corn Oil, 0.33 mmoles (75 mg)/kg oral
[15] = 20% Corn Oil, 0.66 mmoles (150 mg)/kg oral
[16] = 70% Glucose, 0.33 mmoles (75 mg)/kg oral
[17] = 70% Glucose, 0.66 mmoles (150 mg)/kg oral
[18] = Chow, 0.33 mmoles (75 mg)/kg oral
[19] = Chow, 0.66 mmoles (150 mg)/kg oral
[20] = G-70, 0.05 mmoles (114 mg)/kg oral (so in the source)

For `O=C(O)C[C@@](O)(C(=O)O)[C@@H](Cl)C(=O)O` [(-)-threo-Chlorocitric acid, (-)-threo-chlorocitric acid], the “metabolic activity on lipid (fatty acid) and cholesterol syntheses” value [1] was “devoid of metabolic activity as an inhibitor of lipid and cholesterol syntheses”, the “CBWG (cumulative body weight gain)” value [2, 9] was -8 ± 6 g and the “CFC (cumulative food consumption)” value [2, 9] was 157 ± 9 g. The “FBW (final body weight)” value [2, 9] was 184 ± 8 g, the “CBWG (cumulative body weight gain)” value [2, 10] was -27 ± 4 g and the “CFC (cumulative food consumption)” value [2, 10] was 139 ± 6 g. The “FBW (final body weight)” value [2, 10] was 163 ± 5 g, the “anorectic activity as measured by reduction in food consumption” value ([3]; acute meal-fed assay utilizing three diets and pyramiding dose studies, compared with hydroxycitric acid) was “significantly more active” and the “carcass analysis: origin of weight loss” value ([3]; chronic studies) was “weight loss was due to reduction in body lipids”. The “appetite suppression and reduced body weight gain” value ([3]; short- and long-term chronic studies, compared with hydroxycitric acid or citric acid) was “suppressed appetite and reduced body weight gain in mammals more efficaciously than hydroxycitric acid or citric acid”, the Food consumption ([4]; 0.66 mmoles/kg oral, control 8.2 ± 1.2) was 4.8 ± 0.7 g and the Food consumption ([4]; 2.63 mmoles/kg oral, control 13.5 ± 0.8) was 2.2 ± 0.5 g. The “Cholesterol Synthesis, 3H2O converted” value [5] was 98 % of control, the “CBWG (cumulative body weight gain)” value [6, 11] was 12 ± 4 g and the “CFC (cumulative food consumption)” value [6, 11] was 209 ± 10 g. The “FBW (final body weight)” value [6, 11] was 211 ± 7 g, the “CBWG (cumulative body weight gain)” value [6, 12] was -6 ± 6 g and the “CFC (cumulative food consumption)” value [6, 12] was 176 ± 9 g. The “FBW (final body weight)” value [6, 12] was 188 ± 7 g, the “CBWG (cumulative body weight gain)” value [6, 13] was -29 ± 6 g and the “CFC (cumulative food consumption)” value [6, 13] was 153 ± 4 g. The “FBW (final body weight)” value [6, 13] was 169 ± 6 g, the “Food intake, 1st hr” value [7, 14] was 4.0 ± 0.6 g and the “Food intake, 2nd hr” value [7, 14] was 1.6 ± 1.1 g. The “Food intake, 3rd hr” value [7, 14] was 1.3 ± 0.5 g, the “Food intake, Total” value [7, 14] was 6.8 ± 1.6 g and the “Food intake, 1st hr” value [7, 15] was 3.6 ± 0.6 g. The “Food intake, 2nd hr” value [7, 15] was 2.2 ± 0.4 g, the “Food intake, 3rd hr” value [7, 15] was 1.3 ± 0.4 g and the “Food intake, Total” value [7, 15] was 7.1 ± 0.9 g. For the same molecule, the “Food intake, 1st hr” value [7, 16] was 2.2 ± 0.5 g, the “Food intake, 2nd hr” value [7, 16] was 2.2 ± 0.5 g and the “Food intake, 3rd hr” value [7, 16] was 3.8 ± 0.4 g. The “Food intake, Total” value [7, 16] was 8.2 ± 1.1 g, the “Food intake, 1st hr” value [7, 17] was 2.7 ± 0.4 g and the “Food intake, 2nd hr” value [7, 17] was 1.7 ± 0.3 g. The “Food intake, 3rd hr” value [7, 17] was 2.3 ± 0.5 g, the “Food intake, Total” value [7, 17] was 6.7 ± 0.7 g and the “Food intake, 1st hr” value [7, 18] was 4.2 ± 1.4 g. The “Food intake, 2nd hr” value [7, 18] was 1.6 ± 0.4 g, the “Food intake, 3rd hr” value [7, 18] was 2.3 ± 0.7 g and the “Food intake, Total” value [7, 18] was 8.1 ± 2.1 g. The “Food intake, 1st hr” value [7, 19] was 3.6 ± 0.9 g, the “Food intake, 2nd hr” value [7, 19] was 1.4 ± 0.2 g and the “Food intake, 3rd hr” value [7, 19] was 1.9 ± 0.4 g. The “Food intake, Total” value [7, 19] was 6.9 ± 1.2 g, the “Carcass Lipid (% carcass), % of control” value [8, 20] was 82 % of control and the “Carcass Lipid total, % of control” value [8, 20] was 67 % of control. The “Carcass Lipid, % carcass” value [8, 20] was 4.43 ± 0.56 % carcass, the “Carcass Lipid, total” value [8, 20] was 7.85 ± 1.03 g and the “Carcass Weight” value [8, 20] was 177 ± 2 g. For the same molecule, the “Carcass Lipid (% carcass), % of control” value [8, 11] was 84 % of control, the “Carcass Lipid total, % of control” value [8, 11] was 76 % of control and the “Carcass Lipid, % carcass” value [8, 11] was 4.58 ± 0.09 % carcass. For the same molecule, the “Carcass Lipid, total” value [8, 11] was 8.98 ± 0.30 g, the “Carcass Weight” value [8, 11] was 196 ± 4 g and the “Carcass Lipid (% carcass), % of control” value [8, 13] was 64 % of control. For the same molecule, the “Carcass Lipid total, % of control” value [8, 13] was 50 % of control, the “Carcass Lipid, % carcass” value [8, 13] was 3.48 ± 0.68 % carcass and the “Carcass Lipid, total” value [8, 13] was 5.95 ± 1.28 g. For the same molecule, the “Carcass Weight” value [8, 13] was 169 ± 6 g.
